# Reference: patent US9458430B2, “Differentiation of pluripotent stem cells” (Janssen Biotech, Inc., priority 2010, dated 2016)
# How the values were obtained:
# Type in all cases: cell-based
# [1] = tested on: human embryonic stem cells line H1; assay: Real-time PCR of pancreatic related genes in H1 cells differentiated by the Example 1 protocol
# Protocol: FIGS. 1A to 1H show real-time PCR data obtained from samples obtained from cells at stages III-IV, of the protocol outlined in Example 1, for PAX4 (FIG. 1A), NGN3 (FIG. 1B), PDX1 (FIG. 1C), NEUROD (FIG. 1D), NKX6.1 (FIG. 1E), CDX2 (FIG. 1F), and Albumin (FIG. 1G). The y-axis is fold expression over undifferentiated H1 cells.
# Cells of the human embryonic stem cells line H1 (p40-p50) were cultured on MATRIGEL®-coated dishes (1:30 dilution) (BD Biosciences; Cat #356231) in MEF-CM (mouse embryonic fibroblast conditioned medium) as colonies and differentiated into pancreatic endocrine precursor cells as follows: • a. Stage I (Definitive Endoderm): Human embryonic stem cells were cultured in RPMI medium supplemented with 2% fatty acid-free BSA (Catalog#68700, Proliant, IA), and 100 ng/ml activin A (R&D Systems, MN) plus 20 ng/ml WNT-3a (Catalog#1324-WN-002, R&D Systems, MN) plus 8 ng/ml of bFGF (Catalog#100-18B, PeproTech, NJ), for one day, followed by treatment with RPMI medium supplemented with 2% BSA and 100 ng/ml activin A plus 8 ng/ml of bFGF for an additional two days, then • b. Stage II (Primitive gut tube): Cells were treated with RPMI+2% fatty acid-free BSA and 50 ng/ml FGF7, for two days, then • c. Stage III (Posterior foregut): Cells were treated with DMEM/High-Glucose supplemented with 1:200 dilution of ITS-X (Invitrogen, CA) and 0.1% BSA (Lipid Rich) (Invitrogen, Ca No. 11021-045), 50 ng/ml FGF7, 0.25 μM SANT-1, 2 μM Retinoic acid (RA) (Sigma, MO), 100 ng/ml of Noggin (R & D Systems, MN), 2.5 μM 4-[4-(4-Fluorophenyl)-1-(3-phenylpropyl)-5-pyridin-4-yl-1H-imidazol-2-yl]but-3-yn-1-ol (a P38 inhibitor disclosed in U.S. Pat. No. 6,521,655), and activin A at 20 ng/ml for five days, then • d. Stage IV (Pancreatic endocrine precursor): Cells were treated with DMEM/High-Glucose supplemented with 1:200 dilution of ITS-X (Invitrogen, CA) and 0.1% BSA (Invitrogen, Ca), 100 ng/ml Noggin, 1 μM ALK5 inhibitor (SD-208, disclosed in Molecular Pharmacology 2007 72:152-161), 500 nM TPB (α-Amyloid Precursor Protein Modulator) (Catalogue #565740, EMD, CA), and 10-100 nM of the CYP26A inhibitor N-{4-[2-Ethyl-1-(1H-1,2,4-triazol-1-yl)butyl]phenyl}-1,3-benzothiazol-2-amine, and 10-100 nM Vitamin A (Catalogue#R7632, Sigma, MO) for four days, or
# In some of the cultures, the Stage IV was extended to six days. mRNA was isolated at stages III and IV for real-time PCR analysis of pancreatic related genes.
# [2] = tested on: human embryonic stem cells line H1; assay: NGN3 immunostaining at stage IV of the Example 1 protocol; conditions: 100 nM of the CYP26A inhibitor vs control
# [3] = tested on: human embryonic stem cells line H1; assay: Real-time PCR of pancreatic related genes in H1 cells differentiated by the Example 2 protocol
# Protocol: FIGS. 2A to 2E show real-time PCR data obtained from samples obtained from cells at stages III-IV, of the protocol outlined in Example 2, for NGN3 (FIG. 2A), NEUROD (FIG. 2B), CDX2 (FIG. 2C), NKX6.1 (FIG. 2D) and, PDX1 (FIG. 2E). The y-axis is fold expression over undifferentiated H1 cells.
# Cells of the human embryonic stem cells line H1 (p40-p52) were seeded as single cells at a density of 100000 cells/cm^2 on MATRIGEL®-coated dishes (1:30 dilution) (BD Biosciences; Cat #356231) in MEF-CM (mouse embryonic fibroblast conditioned media supplemented) with 16 ng/ml of FGF2 (Catalog#100-18B, PeproTech, NJ) and 10 μM of Y27632 (Rock inhibitor, Catalogue #Y0503, Sigma, MO). 72 hours post seeding, cultures were differentiated into definitive endoderm (DE) as follows: • a. Stage I (Definitive Endoderm): Human embryonic stem cells were treated with MCDB-131 (Catalogue#10372-019, Invitrogen, CA) medium supplemented with 2% fatty acid-free BSA (Catalog#68700, Proliant, IA), 0.0025 g/ml sodium bicarbonate (Catalogue #S3187, Sigma, MO), 1× GlutaMax™ (Catalogue #35050-079, Invitrogen, Ca) and 100 ng/ml activin A (R&D Systems, MN) plus 20 ng/ml WNT-3a (Catalog#1324-WN-002, R&D Systems, MN) for one day, followed by treatment with MCDB-131 medium supplemented with 2% BSA, sodium bicarbonate, Glutamax, and 100 ng/ml activin A for an additional three days, then • b. Stage II (Primitive gut tube): Cells were treated with MCDB-131+2% fatty acid-free BSA and 50 ng/ml FGF7 and for three days, then • c. Stage III (Posterior foregut): Cells were treated with MCDB-131/High-Glucose (25 mM glucose) supplemented with 1:200 dilution of ITS-X (Invitrogen, CA), 1× GlutaMax™ (Catalogue #35050-079, Invitrogen, Ca), 0.0025 g/ml sodium bicarbonate (Catalogue #S3187, Sigma, MO), 0.1% BSA (Lipid Rich) (Invitrogen, Ca No. 11021-045), 50 ng/ml FGF7, 0.25 μM SANT-1, 2 μM Retinoic acid (RA) (Sigma, MO), 2.5 μM 4-[4-(4-Fluorophenyl)-1-(3-phenylpropyl)-5-pyridin-4-yl-1H-imidazol-2-yl]but-3-yn-1-ol (a p38 inhibitor, disclosed in U.S. Pat. No. 6,521,655), 100 nM LDN-193189 (BMP receptor inhibitor, Catalogue #04-0019, Stemgent, CA), 500 nM of the CYP26A inhibitor N-{4-[2-Ethyl-1-(1H-1,2,4-triazol-1-yl)butyl]phenyl}-1,3-benzothiazol-2-amine, and activin A at 20 ng/ml for four days, then • d. Stage IV (Pancreatic endocrine precursor): Cells were treated MCDB-131/High-Glucose (25 mM glucose) supplemented with 1:200 dilution of ITS-X (Invitrogen, CA) and 0.1% BSA (Invitrogen, Ca), 1× GlutaMax™ (Catalogue #35050-079, Invitrogen, Ca), 0.0025 g/ml sodium bicarbonate (Catalogue #S3187, Sigma, MO), 1 μM ALK5 inhibitor (SD-208, disclosed in Molecular Pharmacology 2007 72:152-161), 500 nM PDBu (PKC activator) (Catalogue #P1269, Sigma, MO), 100 nM LDN-193189 (BMP receptor inhibitor, Catalogue #04-0019, Stemgent, CA), 0.25 μM SANT-1 (#S4572, Sigma, MO), and 500 nM of the CYP26A inhibitor N-{4-[2-Ethyl-1-(1H-1,2,4-triazol-1-yl)butyl]phenyl}-1,3-benzothiazol-2-amine for seven days, or • e. Stage IV (Pancreatic endocrine precursor): Cells were treated MCDB-131/High-Glucose (25 mM glucose) supplemented with 1:200 dilution of ITS-X (Invitrogen, CA) and 0.1% BSA (Invitrogen, Ca), 1× GlutaMax™ (Catalogue #35050-079, Invitrogen, Ca), 0.0025 g/ml sodium bicarbonate (Catalogue #S3187, Sigma, MO), 1 μM ALK5 inhibitor (SD-208, disclosed in Molecular Pharmacology 2007 72:152-161), 500 nM PDBu (PKC activator) (Catalogue #P1269, Sigma, MO), 100 nM LDN-193189 (BMP receptor inhibitor, Catalogue #04-0019, Stemgent, CA), 0.25 μM SANT-1 (#S4572, Sigma, MO) for seven days.
# mRNA was isolated at stages III and IV for real-time PCR analysis of pancreatic related genes. Similar to the results observed in Example 1 above, addition of CYP26A inhibitor to stage IV enhanced expression of pancreatic endocrine precursor markers, such as NGN3 and NeuroD. (See FIG. 2A to 2E).
# [4] = added at stage IV, 10-100 nM, mRNA, real-time PCR, dose dependent
# [5] = added at stage IV, mRNA, real-time PCR
# [6] = 500 nM added to both stages III and IV
# [7] = 500 nM added to stage III in the presence of retinoic acid
Molecule,expression of pancreatic endoderm or endocrine precursor markers ([1]; vitamin A 10-100 nM added along with the CYP26A inhibitor at stage IV),"expression of endocrine precursor marker NGN3 [1, 4]","expression of endocrine precursor marker NeuroD [1, 4]","expression of endocrine precursor marker Pax4 [1, 4]","expression of pancreatic endoderm marker NKX6.1 [1, 4]","expression of CDX2 (an intestinal marker) [1, 5]","expression of albumin (a liver marker) [1, 5]",expression of NGN3 by immunostaining [2],"expression of NGN3 [3, 6]","expression of NeuroD [3, 6]","expression of CDX2 [3, 7]","expression of NKX6.1 [3, 7]","expression of PDX-1 [3, 7]",expression of pancreatic endocrine precursor marker NGN3 ([3]; 500 nM added to stage IV),expression of pancreatic endocrine precursor marker NeuroD ([3]; 500 nM added to stage IV)
Vitamin A,did not significantly modify,,,,,,,,,,,,,,
"CCC(CC)[C@H](c1ccc(Nc2nc3ccccc3s2)cc1)n1cncn1 (stereo in doubt) [CYP26A inhibitor, N-{4-[2-Ethyl-1-(1H-1,2,4-triazol-1-yl)butyl]phenyl}-1,3-benzothiazol-2-amine]",,significantly boosted,significantly boosted,significantly boosted,significantly boosted,decreased,decreased,significant boost,further enhanced,further enhanced,enhancing,significantly down regulated,significantly down regulated,enhanced,enhanced
